Laboratory results published in publication PMC12345137 (mBio, 2025).

How the values were obtained:
S. epidermidis agr-III = S. epidermidis agr-III (Staphylococcus epidermidis, UniProt Q8VSX2); experiment: cell-based; format: cell-based; conditions: fluorescent reporter strain; peptides tested at 1000, 50, 2.5, 0.125 nM or in dose-response
Method: (§1) Peptides were evaluated for the ability to interfere with agr-mediated quorum sensing in S. aureus (AH1677, AH430, AH1747, and AH1872 for agr-I–IV, respectively) ([40]) using reporter strains expressing yellow fluorescent protein (YFP) upon agr activation. Interference with agr-mediated quorum sensing in S. epidermidis (AH3408, AH3623, and AH3409 for agr-I–III, respectively) ([45]), and S. lugdunensis (AH4031 for agr-I) ([37]) was evaluated using reporter strains expressing superfolder green fluorescent protein (sGFP) upon agr activation. Overnight cultures of the reporter strains were grown in TSB medium containing chloramphenicol (CAM, 10 μg/mL for S. aureus) or erythromycin (ERM, 10 μg/mL of S. epidermidis and S. lugdunensis) and diluted 1:100 in fresh TSB medium containing the same antibiotic. Assays were performed in sterile black 96-well plates with a clear bottom. […] DMSO stock solutions of peptides (1 mM) were diluted in TSB media and added (15 μL) in technical triplicate to the 96-well plate, followed by diluted bacterial overnight cultures (135 μL). Control wells for 100% agr activity were wells replacing the peptide solution with TSB medium (15 μL). […] Wells containing 150 μL TSB medium were used to measure background fluorescence. The 96-well plates were incubated in a humidified incubator at 37°C shaking at 1,000 rpm for 22–24 h and fluorescence (for GFP: excitation 479 nm, emission 520 nm; for YFP: excitation 500 nm, emission 541 nm; automatic gain), and OD600 values were subsequently measured using a plate reader. Background fluorescence was subtracted from all wells and further normalized to the corresponding OD600 value of the respective wells. The average fluorescence of control wells was used as a relative measure for 100% activation of the agr-circuit, and bar graphs were generated using GraphPad Prism 10.4 software. All assays were performed in at least a biological duplicate.
(§2) Overnight cultures of the reporter strains were grown in TSB medium containing chloramphenicol (CAM, 10 μg/mL for S. aureus) or erythromycin (ERM, 10 μg/mL of S. epidermidis and S. lugdunensis) and diluted 1:100 in fresh TSB medium containing the same antibiotic. Assays were performed in sterile black 96-well plates with clear bottoms. Peptide solutions (15 μL) in 1:5 serial dilutions from DMSO stock solutions (1 mM) in TSB medium were added to the 96-well plate in technical duplicate followed by diluted bacterial overnight cultures (135 μL). Control wells for 100% agr activity were wells replacing the peptide solution with TSB medium (15 μL). Wells containing 150 μL TSB medium were used to measure background fluorescence. The 96-well plates were incubated in a humidified incubator at 37°C shaking at 1,000 rpm for 22–24 h and fluorescence (for GFP: excitation 479 nm, emission 520 nm; for YFP: excitation 500 nm, emission 541 nm; automatic gain), and OD600 values were subsequently measured using a plate reader. Background fluorescence was subtracted from all wells and further normalized to the corresponding OD600 value of the respective wells. The average fluorescence of control wells was used as a relative measure for 100% activation of the agr-circuit. Relative agr activity was plotted to obtain IC50 values by non-linear regression with variable slope using GraphPad Prism 10.4 software. All assays were performed in biological triplicate.

S. aureus agr-IV = S. aureus agr-IV (Staphylococcus aureus, UniProt Q309Z2); experiment: cell-based; format: cell-based; conditions: fluorescent reporter strain; peptides tested at 1000, 50, 2.5, 0.125 nM or in dose-response
Method: as §1, §2

S. lugdunensis agr-I = S. lugdunensis agr-I (Staphylococcus lugdunensis, UniProt Q8VSW5); experiment: cell-based; conditions: fluorescent reporter strain; peptides tested at 1000, 50, 2.5, 0.125 nM or in dose-response
Method: as §1, §2

SA AgrC-II = SA AgrC-II (Staphylococcus aureus, UniProt O33587); conditions: 100 nM cognate AIP; ± SEM; -b = no inhibition recorded at the highest AIP concentration tested; determined previously; ref (1); read-out: IC50, SA AgrC-II, b-lactamase assay; cited from earlier work
SA AgrC-III = SA AgrC-III (Staphylococcus aureus, UniProt O33590); conditions: 100 nM cognate AIP; ± SEM; -b = no inhibition recorded at the highest AIP concentration tested; determined previously; ref (1); read-out: IC50, SA AgrC-III, b-lactamase assay; cited from earlier work
SA AgrC-IV = SA AgrC-IV (Staphylococcus aureus, UniProt Q309Z2); conditions: 100 nM cognate AIP, ± SEM, -b = no inhibition recorded at the highest AIP concentration tested, determined previously, ref (1), cited from earlier work
S. aureus (SA) agr-I = conditions: fluorescence; ref (14); cited from earlier work
S. aureus (SA) agr-II = conditions: fluorescence; ref (14); cited from earlier work
S. aureus (SA) agr-III = conditions: fluorescence; ref (14); cited from earlier work
S. aureus (SA) agr-IV = conditions: fluorescence; ref (14); cited from earlier work
[1] = test system: S. epidermidis (SE) agr-I; conditions: fluorescence; ref (14); cited from earlier work
[2] = test system: S. epidermidis (SE) agr-II; conditions: fluorescence; ref (14); cited from earlier work

S. simulans AIP-II/III Y3A/N3A [compound 38]
QS interaction in words (inhibition / activation), S. epidermidis agr-III (S. epidermidis agr-III): inhibitor

S. simulans AIP-III 8-mer [compound 52]
QS interaction in words (inhibition / activation), S. aureus agr-IV (S. aureus agr-IV): increased inhibition

S. simulans AIP-III G7A [compound 49]
QS interaction in words (inhibition / activation), S. epidermidis agr-III (S. epidermidis agr-III): loss of activation

S. simulans AIP-III K1A [compound 45]
QS interaction in words (inhibition / activation), S. epidermidis agr-III (S. epidermidis agr-III): lost the ability to activate

S. simulans AIP-III P4A [compound 47]
QS interaction in words (inhibition / activation), S. lugdunensis agr-I (S. lugdunensis agr-I): increase in inhibition

S. simulans AIP-III W6A [compound 48]
QS interaction in words (inhibition / activation), S. epidermidis agr-III (S. epidermidis agr-III): no effect on S. epidermidis agr-III activation

S. simulans AIP-III Y2A [compound 46]
QS interaction in words (inhibition / activation), S. epidermidis agr-III (S. epidermidis agr-III): lost the ability to activate

S. vitulinus AIP-I [compound 35]
IC50 (SA AgrC-II): 800 ± 116 nM | IC50 (SA AgrC-III): 690 ± 46 nM | IC50, SA AgrC-IV, b-lactamase assay (SA AgrC-IV): -b

S. warneri AIP-I [compound 16]
IC50 (SA AgrC-II): 1000 ± 105 nM | IC50 (SA AgrC-III): 460 ± 59 nM | IC50 (SA AgrC-IV; read-out: IC50, SA AgrC-IV, b-lactamase assay): > 1000 nM | IC50 (S. aureus (SA) agr-I): 10 nM | IC50 (S. aureus (SA) agr-II): 4 nM | IC50 (S. aureus (SA) agr-III): 13 nM | IC50 (S. aureus (SA) agr-IV): 146 nM | IC50 [1]: 3 nM | IC50 [2]: 19 nM

S. warneri AIP-II [compound 17]
IC50 (S. aureus (SA) agr-I): 2 nM | IC50 (S. aureus (SA) agr-II): 30 nM | IC50 (S. aureus (SA) agr-III): 2 nM | IC50 (S. aureus (SA) agr-IV): 2 nM | IC50 [1]: 12 nM | IC50 [2]: 4 nM
